For assay [1], the target named is T1, adult human muscle nicotinic acetylcholine receptor (nAChR, α2βεδ) (Homo sapiens, UniProt P02708+Q04844+Q07001). Nature of the assay: cell-based.
In assay [2] the target is T1, adult human muscle nicotinic acetylcholine receptor (nAChR, α2βεδ). The following applies: 300 μM ACh, -50 mV, pH 7.3, room temperature; competitive.

Like-named read-outs stand apart in the source and are kept apart here.

T1 sequence (P02708 21-457): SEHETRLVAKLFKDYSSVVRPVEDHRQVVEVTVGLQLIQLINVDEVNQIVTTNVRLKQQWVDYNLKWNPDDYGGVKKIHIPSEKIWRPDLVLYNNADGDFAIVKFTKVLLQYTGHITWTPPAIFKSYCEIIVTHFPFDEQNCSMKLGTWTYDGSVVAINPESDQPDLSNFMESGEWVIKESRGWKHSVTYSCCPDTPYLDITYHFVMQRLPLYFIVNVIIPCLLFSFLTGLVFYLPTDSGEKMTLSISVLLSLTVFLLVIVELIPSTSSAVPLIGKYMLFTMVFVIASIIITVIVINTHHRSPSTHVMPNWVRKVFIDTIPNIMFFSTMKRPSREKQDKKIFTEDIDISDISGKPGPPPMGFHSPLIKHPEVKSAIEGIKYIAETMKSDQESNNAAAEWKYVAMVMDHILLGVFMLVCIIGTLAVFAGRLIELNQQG
T1 sequence (Q04844 21-493): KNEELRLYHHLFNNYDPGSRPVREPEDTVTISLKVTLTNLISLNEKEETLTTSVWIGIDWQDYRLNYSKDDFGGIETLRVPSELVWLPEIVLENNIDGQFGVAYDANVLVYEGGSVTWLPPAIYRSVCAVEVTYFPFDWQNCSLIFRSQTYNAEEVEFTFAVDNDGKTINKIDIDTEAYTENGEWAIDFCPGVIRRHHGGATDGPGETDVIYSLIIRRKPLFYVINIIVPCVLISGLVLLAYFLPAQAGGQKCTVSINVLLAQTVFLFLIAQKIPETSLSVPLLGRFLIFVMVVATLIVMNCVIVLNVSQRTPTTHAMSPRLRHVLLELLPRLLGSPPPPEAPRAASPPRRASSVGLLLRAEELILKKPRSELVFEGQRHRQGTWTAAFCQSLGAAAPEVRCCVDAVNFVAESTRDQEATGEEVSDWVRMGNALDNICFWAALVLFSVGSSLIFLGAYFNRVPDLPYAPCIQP
T1 sequence (Q07001 22-517): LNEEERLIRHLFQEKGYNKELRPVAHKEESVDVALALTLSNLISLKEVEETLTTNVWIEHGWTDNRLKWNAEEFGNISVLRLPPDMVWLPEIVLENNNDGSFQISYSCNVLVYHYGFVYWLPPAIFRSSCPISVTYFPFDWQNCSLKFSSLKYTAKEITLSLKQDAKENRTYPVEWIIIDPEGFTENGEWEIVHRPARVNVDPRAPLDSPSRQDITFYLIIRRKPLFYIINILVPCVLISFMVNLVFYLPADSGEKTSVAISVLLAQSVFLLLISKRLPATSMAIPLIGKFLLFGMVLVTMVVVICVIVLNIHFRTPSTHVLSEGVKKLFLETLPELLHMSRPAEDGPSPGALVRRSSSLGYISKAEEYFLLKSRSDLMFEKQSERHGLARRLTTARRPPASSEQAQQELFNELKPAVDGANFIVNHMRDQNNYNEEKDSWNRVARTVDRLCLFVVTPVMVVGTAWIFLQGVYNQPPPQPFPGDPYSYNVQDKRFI
T1 sequence (P11230 24-501 partner): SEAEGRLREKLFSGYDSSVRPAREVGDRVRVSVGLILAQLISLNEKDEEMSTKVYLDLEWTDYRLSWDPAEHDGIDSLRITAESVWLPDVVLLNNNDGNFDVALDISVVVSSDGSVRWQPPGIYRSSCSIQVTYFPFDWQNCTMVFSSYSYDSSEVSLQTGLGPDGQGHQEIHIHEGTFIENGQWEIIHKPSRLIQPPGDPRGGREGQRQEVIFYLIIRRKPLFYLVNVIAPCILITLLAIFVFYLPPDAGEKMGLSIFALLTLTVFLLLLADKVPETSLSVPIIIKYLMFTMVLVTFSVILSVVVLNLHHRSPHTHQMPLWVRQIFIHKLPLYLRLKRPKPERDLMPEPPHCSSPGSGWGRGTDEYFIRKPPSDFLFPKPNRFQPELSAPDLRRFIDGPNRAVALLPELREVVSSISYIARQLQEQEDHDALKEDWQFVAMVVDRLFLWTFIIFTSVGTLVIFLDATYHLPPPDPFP

In general, IC50 refers to the midpoint of a concentration-inhibition curve. A higher IC50 goes with lower potency. As for `COc1cc2c3cc1Oc1cc(ccc1O)C[C@@H]1c4c(cc(OC)c(O)c4Oc4ccc(cc4)C[C@@H]3N(C)CC2)CC[N+]1(C)C` [(+)-tubocurarine], the IC50 in assay [1] is 0.024 ± 0.002 µM.
As to `COc1ccc(CC2c3cc(OC)c(OC)cc3CC[N+]2(C)CCC(=O)OCCCCCOC(=O)CC[N+]2(C)CCc3cc(OC)c(OC)cc3C2Cc2ccc(OC)c(OC)c2)cc1OC` (stereo not shown) [atracurium], the 50% inhibitory concentration (IC50) in assay [2] worked out at 0.017 ± 0.002 µM.
Turning to `COc1ccc(C[C@@H]2c3cc(OC)c(OC)cc3CC[N@+]2(C)CCC(=O)OCCCCCOC(=O)CC[N@@+]2(C)CCc3cc(OC)c(OC)cc3[C@H]2Cc2ccc(OC)c(OC)c2)cc1OC` [cisatracurium], in assay [1], 0.01 ± 0.001 µM corresponded to half-maximal inhibition (IC50).
As to `COc1ccc2cc1Oc1cc3c(cc1OC)CC[N+](C)(C)[C@H]3Cc1ccc(cc1)Oc1c(OC)c(OC)cc3c1[C@@H](C2)[N+](C)(C)CC3` [metocurine], the IC50 in assay [2] amounted to 0.018 ± 0.002 µM.
Regarding `CC(=O)O[C@H]1C[C@@H]2CC[C@@H]3[C@H](CC[C@@]4(C)[C@H]3C[C@H]([N+]3(C)CCCCC3)[C@@H]4OC(C)=O)[C@@]2(C)C[C@@H]1[N+]1(C)CCCCC1` [pancuronium], the 50% inhibitory concentration (IC50) in assay [1] is 0.0063 ± 0.0008 µM.
Consider `C=CC[N+]1([C@H]2C[C@H]3[C@@H]4CC[C@H]5C[C@H](O)[C@@H](N6CCOCC6)C[C@]5(C)[C@H]4CC[C@]3(C)[C@H]2OC(C)=O)CCCC1` [rocuronium], for which the IC50 in assay [2] was 0.017 ± 0.002 µM.
Turning to `CC(=O)O[C@H]1C[C@@H]2CC[C@@H]3[C@H](CC[C@@]4(C)[C@H]3C[C@H]([N+]3(C)CCCCC3)[C@@H]4OC(C)=O)[C@@]2(C)C[C@@H]1N1CCCCC1` [vecuronium], in assay [2], the IC50 amounted to 0.015 ± 0.002 µM.

These data come from article PMC2497451 (Anesthesia and analgesia, 2008).
